Measured values taken from patent US4049696A, “3-((4-(2,2-Dichloro-1,1-difluoroethoxy)phenyl)sulfonyl)-2-propenenitrile” (The Dow Chemical Company, priority 1977, dated 1977).
In brackets after ≈: the same amount, converted by molar mass.

Key:
Format in all cases: cell-based
C. albicans NIH = assay: in vitro agar Petri dish dilution test, C. albicans NIH; conditions: Candida albicans, 100% growth inhibition
Text: (§1) The compound has antimicrobial utility.

[1] = system: Trichoderm Sp. Madison P-42; assay: in vitro agar Petri dish dilution test, Trichoderm Sp. Madison P-42; conditions: 100% growth inhibition
Text: as §1

A. fumigatus = assay: in vitro agar Petri dish dilution test, A. fumigatus; conditions: Aspergillus fumigatus, 100% growth inhibition
Text: as §1

T. mentagrophytes = assay: in vitro agar Petri dish dilution test, T. mentagrophytes; conditions: Trichophyton mentagrophytes, 100% growth inhibition
Text: as §1

C. pelliculosa = assay: in vitro agar Petri dish dilution test, C. pelliculosa; conditions: Hansenula anomala, 100% growth inhibition
Text: as §1

Torulopsis Species = assay: in vitro agar Petri dish dilution test, Torulopsis Species; conditions: 100% growth inhibition
Text: as §1

P. pullulans = assay: in vitro agar Petri dish dilution test, P. pullulans; conditions: 100% growth inhibition
Text: as §1

S. marcescens NIH = assay: in vitro agar Petri dish dilution test, S. marcescens NIH; conditions: Serratia marcescens, 100% growth inhibition
Text: as §1

P. aeruginosa = assay: in vitro agar Petri dish dilution test, P. aeruginosa; conditions: Pseudomonas aeruginosa, 100% growth inhibition
Text: as §1

E. coli ATCC 11229 = assay: in vitro agar Petri dish dilution test, E. coli ATCC 11229; conditions: Escherichia coli, ATCC11229, 100% growth inhibition
Text: as §1

B. subtilis = assay: in vitro agar Petri dish dilution test, B. subtilis; conditions: Bacillus subtilis, 100% growth inhibition
Text: as §1

C. albicans = assay: in vitro agar Petri dish dilution test, C. albicans; conditions: Candida albicans, 100% growth inhibition
Text: as §1

[2] = system: K. pneumoniae M-1 Midland Hospital; assay: in vitro agar Petri dish dilution test, K. pneumoniae M-1 Midland Hospital; conditions: Klebsiella pneumoniae, 100% growth inhibition
Text: as §1

S. aureus = assay: in vitro agar Petri dish dilution test, S. aureus; conditions: Staphylococcus aureus, 100% growth inhibition
Text: as §1

P. chrysogenum = assay: in vitro agar Petri dish dilution test, P. chrysogenum; conditions: Penicillium chrysogenum, 100% growth inhibition
Text: as §1

A. niger = assay: in vitro agar Petri dish dilution test, A. niger; conditions: Aspergillus niger, 100% growth inhibition
Text: as §1

`N#CC=CS(=O)(=O)c1ccc(OC(F)(F)C(Cl)Cl)cc1` [3-((4-(2,2-Dichloro-1,1-difluoroethoxy)phenyl)sulfonyl)-2-propenenitrile] was tested, and the MIC (C. albicans NIH) was 50 µg/mL (≈ 146 µM), the MIC [1] was 100 µg/mL (≈ 292 µM) and the MIC (A. fumigatus) was 50 µg/mL (≈ 146 µM). For the same compound, the MIC (T. mentagrophytes) was 10 µg/mL (≈ 29.2 µM), the MIC (C. pelliculosa) was 10 µg/mL (≈ 29.2 µM) and the MIC (Torulopsis Species) was 50 µg/mL (≈ 146 µM). For the same compound, the MIC (P. pullulans) was 50 µg/mL (≈ 146 µM), the MIC (S. marcescens NIH) was 50 µg/mL (≈ 146 µM) and the MIC (P. aeruginosa) was 100 µg/mL (≈ 292 µM). For the same compound, the MIC (E. coli ATCC 11229) was 50 µg/mL (≈ 146 µM), the MIC (B. subtilis) was 1 µg/mL (≈ 2.92 µM) and the MIC (C. albicans) was 50 µg/mL (≈ 146 µM). The MIC [2] was 100 µg/mL (≈ 292 µM), the MIC (S. aureus) was 5 µg/mL (≈ 14.6 µM) and the MIC (P. chrysogenum) was 10 µg/mL (≈ 29.2 µM). For the same compound, the MIC (A. niger) was 10 µg/mL (≈ 29.2 µM).
